ChEMBL document CHEMBL1201862, “PubChem BioAssay data set” (2004)
The source made the active and inactive calls.

Tests used:
Streptokinase A = molecular target: T1, Streptokinase A (Streptococcus pyogenes serotype M1, UniProt P10520); test: viability-normalized secreted streptokinase activity reduction – plasminogen activation absorbance, OD405, dose response (AID 1914); type: functional, Streptococcus pyogenes M1 GAS;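 note: secreted streptokinase activity via plasminogen activation per viability signal from cell pellet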
T1 sequence (P10520 whole entry): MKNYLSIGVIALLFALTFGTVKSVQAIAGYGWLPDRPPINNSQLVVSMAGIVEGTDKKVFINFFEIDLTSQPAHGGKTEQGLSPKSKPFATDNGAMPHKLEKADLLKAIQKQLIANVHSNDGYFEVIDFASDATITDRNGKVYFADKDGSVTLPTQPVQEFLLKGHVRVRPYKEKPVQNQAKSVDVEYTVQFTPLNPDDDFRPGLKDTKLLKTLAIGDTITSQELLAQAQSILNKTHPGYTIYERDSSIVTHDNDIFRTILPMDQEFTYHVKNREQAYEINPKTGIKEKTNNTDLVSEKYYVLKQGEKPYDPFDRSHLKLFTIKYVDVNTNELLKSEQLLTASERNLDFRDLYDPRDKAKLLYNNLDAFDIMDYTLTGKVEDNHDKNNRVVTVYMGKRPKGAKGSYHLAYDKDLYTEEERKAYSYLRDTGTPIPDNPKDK

[1] = tested on: Streptococcus sp. 'group A'; test: Streptococcus pyogenes SK(-)GAS viability under kanamycin – luminescence, BacTiterGlo, confirmation, counter-screen for streptokinase expression inhibitor project, dose response (AID 1900); type: functional, organism-based
Streptococcus = test: GAS UMAA2166 growth inhibition – luminescence, BacTiterGlo, counter-screen for streptokinase expression inhibitor project, dose response (AID 1915); type: functional, organism-based;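 note: potency for reduction of bacterial viability or growth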
[2] = molecular target: T2, Heat shock factor protein 1 (Mus musculus, UniProt P38532); test: decrease of HSF1-responsive luciferase luminescence – cell-based, NIH3T3, dose retest, confirmation (AID 2382); type: functional;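 note: NIH3T3 fibroblasts with HSF1-driven luciferase reporter stressed by proteasome inhibitor MG132; luminescence from HSF1-driven luciferase expression after 8 hours of MG132 stress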
T2 sequence (P38532 whole entry): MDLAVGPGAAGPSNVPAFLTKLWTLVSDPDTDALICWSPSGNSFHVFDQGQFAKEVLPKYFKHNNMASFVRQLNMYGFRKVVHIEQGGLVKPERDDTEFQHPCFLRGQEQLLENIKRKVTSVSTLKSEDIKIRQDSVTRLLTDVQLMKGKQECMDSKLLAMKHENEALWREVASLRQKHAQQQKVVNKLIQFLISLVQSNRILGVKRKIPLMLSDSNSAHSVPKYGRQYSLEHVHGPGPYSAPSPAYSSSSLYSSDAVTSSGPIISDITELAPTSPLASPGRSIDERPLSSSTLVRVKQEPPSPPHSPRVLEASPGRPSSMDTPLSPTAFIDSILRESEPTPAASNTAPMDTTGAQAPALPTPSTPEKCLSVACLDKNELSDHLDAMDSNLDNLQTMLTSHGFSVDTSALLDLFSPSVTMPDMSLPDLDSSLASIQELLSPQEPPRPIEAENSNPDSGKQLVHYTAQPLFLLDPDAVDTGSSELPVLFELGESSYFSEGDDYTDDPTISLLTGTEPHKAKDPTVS

Cytochrome P450 1A2 = molecular target: T3, Cytochrome P450 1A2 (Homo sapiens, UniProt P05177);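 note: PubChem cytochrome P450 panel assay, CYP1A2 panel member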
T3 sequence (P05177 whole entry): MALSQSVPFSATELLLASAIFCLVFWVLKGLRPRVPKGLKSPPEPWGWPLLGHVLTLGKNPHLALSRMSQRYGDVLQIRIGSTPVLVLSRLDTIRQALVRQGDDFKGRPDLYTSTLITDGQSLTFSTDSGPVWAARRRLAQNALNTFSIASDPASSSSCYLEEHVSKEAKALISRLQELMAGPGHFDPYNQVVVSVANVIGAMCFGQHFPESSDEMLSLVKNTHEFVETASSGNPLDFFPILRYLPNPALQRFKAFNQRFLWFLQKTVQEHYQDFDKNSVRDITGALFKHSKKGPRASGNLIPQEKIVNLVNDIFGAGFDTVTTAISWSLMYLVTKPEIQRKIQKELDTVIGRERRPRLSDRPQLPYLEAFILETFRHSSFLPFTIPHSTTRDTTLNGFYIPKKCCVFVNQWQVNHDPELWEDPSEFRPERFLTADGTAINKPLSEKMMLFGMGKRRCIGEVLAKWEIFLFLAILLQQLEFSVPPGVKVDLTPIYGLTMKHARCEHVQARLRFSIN

[3] = molecular target: T4, Corticotropin-releasing factor receptor 2/Corticotropin-releasing factor-binding protein (Homo sapiens, UniProt P24387+Q13324); test: activators of CRF receptor 2 with binding protein – uHTS hits, confirmation (AID 602473); type: functional; conditions: read-out: EC50_Mean
T4 sequence (Q13324 whole entry): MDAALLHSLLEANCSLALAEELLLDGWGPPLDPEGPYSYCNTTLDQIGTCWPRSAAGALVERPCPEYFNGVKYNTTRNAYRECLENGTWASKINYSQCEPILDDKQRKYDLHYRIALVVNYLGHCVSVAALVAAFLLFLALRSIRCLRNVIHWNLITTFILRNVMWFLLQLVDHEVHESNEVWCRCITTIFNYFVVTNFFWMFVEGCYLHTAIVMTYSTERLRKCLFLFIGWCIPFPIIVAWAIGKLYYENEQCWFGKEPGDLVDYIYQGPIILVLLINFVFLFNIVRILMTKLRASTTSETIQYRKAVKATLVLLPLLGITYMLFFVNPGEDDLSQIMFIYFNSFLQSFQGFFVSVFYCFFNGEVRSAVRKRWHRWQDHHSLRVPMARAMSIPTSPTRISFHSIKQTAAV
T4 sequence (P24387 whole entry): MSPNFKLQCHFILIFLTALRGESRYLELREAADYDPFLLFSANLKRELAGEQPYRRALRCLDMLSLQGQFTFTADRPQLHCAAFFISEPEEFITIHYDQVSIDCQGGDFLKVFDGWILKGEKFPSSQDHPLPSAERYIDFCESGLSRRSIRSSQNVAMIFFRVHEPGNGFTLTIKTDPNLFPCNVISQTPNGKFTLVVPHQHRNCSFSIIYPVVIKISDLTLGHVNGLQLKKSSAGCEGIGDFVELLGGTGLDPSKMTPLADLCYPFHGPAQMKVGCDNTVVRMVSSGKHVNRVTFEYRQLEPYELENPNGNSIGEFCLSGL

Cytochrome P450 2C9 = Cytochrome P450 2C9 (Homo sapiens, UniProt P11712)
[4] = luciferase reporter signal suppression in cells – H4 neuroglioma cells, luminescence, dose response (AID 1990); type: functional, cell-based
[5] = alpha-synuclein stem-loop luciferase translation blockers – H4 neuroglioma cells, luminescence, confirmation (AID 1988); type: functional, cell-based
[6] = Luminescence Cell-Based Dose Response HTS to Identify Inhibitors of 5'UTR Stem-Loop Driven Prion Protein mRNA Translation in H4 Neuroglioblastoma Cells. [Related pubchem assays: 1827 (Project Summary), 1813 (Primary HTS)]; type: functional
Paired box protein Pax-8 = Paired box protein Pax-8 (Homo sapiens, UniProt Q06710); test: PAX8 transcriptional activity inhibition in RMG-I – RMG-I cells, luciferase, cherry-pick, dose response (AID 687027); type: functional, cell-based;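 note: luciferase reporter driven by Pax8 target thyroperoxidase promoter measured by SteadyGlo luminescence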
Cytochrome P450 2C19 = Cytochrome P450 2C19 (Homo sapiens, UniProt P33261); test: Cytochrome panel assay with activity outcomes. Panel member name: p450-cyp2c19 Compounds with AC50 equal or less than 10 uM are considered active; type: functional; conditions: read-out: AC50
Cytochrome P450 3A4 = Cytochrome P450 3A4 (Homo sapiens, UniProt P08684);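 note: CYP3A4 tested as one member of a cytochrome P450 panel screen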
Chain of Cytochrome P450 3A4 (P08684 whole entry): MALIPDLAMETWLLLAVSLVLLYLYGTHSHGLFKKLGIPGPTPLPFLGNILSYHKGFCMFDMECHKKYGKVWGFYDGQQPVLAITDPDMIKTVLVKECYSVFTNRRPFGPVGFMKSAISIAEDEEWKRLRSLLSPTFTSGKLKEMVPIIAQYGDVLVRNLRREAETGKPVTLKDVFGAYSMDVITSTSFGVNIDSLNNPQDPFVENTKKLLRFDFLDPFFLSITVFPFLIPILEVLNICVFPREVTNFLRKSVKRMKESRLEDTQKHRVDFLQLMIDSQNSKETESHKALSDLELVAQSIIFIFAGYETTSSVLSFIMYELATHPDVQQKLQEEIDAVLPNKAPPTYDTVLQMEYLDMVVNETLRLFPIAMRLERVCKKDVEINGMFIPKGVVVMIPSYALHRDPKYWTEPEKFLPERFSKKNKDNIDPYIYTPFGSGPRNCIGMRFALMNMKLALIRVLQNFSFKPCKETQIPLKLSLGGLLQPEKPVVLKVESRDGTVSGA

Chain of Paired box protein Pax-8 (Q06710 whole entry): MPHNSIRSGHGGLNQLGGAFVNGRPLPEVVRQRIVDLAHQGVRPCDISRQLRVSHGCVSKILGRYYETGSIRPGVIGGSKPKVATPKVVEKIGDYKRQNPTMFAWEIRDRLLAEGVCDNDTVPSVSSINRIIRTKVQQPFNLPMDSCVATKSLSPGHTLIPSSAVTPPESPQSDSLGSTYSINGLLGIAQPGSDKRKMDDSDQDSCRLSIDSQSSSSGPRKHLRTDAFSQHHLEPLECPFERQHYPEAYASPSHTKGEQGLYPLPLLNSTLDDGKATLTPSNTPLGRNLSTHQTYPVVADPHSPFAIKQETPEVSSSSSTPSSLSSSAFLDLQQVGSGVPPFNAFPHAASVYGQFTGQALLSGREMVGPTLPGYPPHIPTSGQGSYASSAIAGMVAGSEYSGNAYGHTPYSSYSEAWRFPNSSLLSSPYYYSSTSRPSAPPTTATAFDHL
Chain of Cytochrome P450 2C9 (P11712 whole entry): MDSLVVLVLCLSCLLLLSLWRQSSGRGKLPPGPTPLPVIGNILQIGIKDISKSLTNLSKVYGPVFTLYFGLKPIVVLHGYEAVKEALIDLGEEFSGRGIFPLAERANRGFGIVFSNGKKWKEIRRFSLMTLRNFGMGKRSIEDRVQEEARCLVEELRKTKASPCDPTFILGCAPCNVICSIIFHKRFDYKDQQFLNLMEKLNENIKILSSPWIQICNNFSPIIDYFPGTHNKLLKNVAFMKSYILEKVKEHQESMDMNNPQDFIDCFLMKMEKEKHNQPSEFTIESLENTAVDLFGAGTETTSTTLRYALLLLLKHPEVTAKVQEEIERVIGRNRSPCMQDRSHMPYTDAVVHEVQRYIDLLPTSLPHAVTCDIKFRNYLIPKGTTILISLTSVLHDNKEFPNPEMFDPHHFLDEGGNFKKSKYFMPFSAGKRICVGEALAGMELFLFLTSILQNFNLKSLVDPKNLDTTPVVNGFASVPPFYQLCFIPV
Chain of Cytochrome P450 2C19 (P33261 whole entry): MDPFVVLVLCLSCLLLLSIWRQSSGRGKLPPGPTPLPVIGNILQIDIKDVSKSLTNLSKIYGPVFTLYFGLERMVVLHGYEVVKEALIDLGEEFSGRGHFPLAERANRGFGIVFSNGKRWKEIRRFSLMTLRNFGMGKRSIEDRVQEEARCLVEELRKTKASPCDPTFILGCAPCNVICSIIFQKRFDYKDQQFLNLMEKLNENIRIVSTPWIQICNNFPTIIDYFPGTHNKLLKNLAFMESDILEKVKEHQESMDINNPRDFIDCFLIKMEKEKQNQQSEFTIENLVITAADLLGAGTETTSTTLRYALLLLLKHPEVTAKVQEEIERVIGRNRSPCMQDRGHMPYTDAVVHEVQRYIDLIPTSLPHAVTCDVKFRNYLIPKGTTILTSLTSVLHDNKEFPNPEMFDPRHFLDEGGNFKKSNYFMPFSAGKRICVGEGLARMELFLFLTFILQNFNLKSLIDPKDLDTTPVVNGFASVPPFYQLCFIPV

## COC(C(=O)Nc1ccnn1C1CCN(Cc2nccs2)CC1)c1ccccc1 (configuration not stated)
Streptokinase A
  EC50: > 150 µM (not active)
[1]
  EC50: > 150 µM (not active)
Streptococcus
  EC50: > 150 µM (not active)

## O=C(Nc1nncs1)c1ccc(F)c(S(=O)(=O)N2CCCCC2)c1
[2]
  EC50: 39.5 µM (active)

## O=C(Nc1cccc(Cl)c1)c1ccc(S(=O)(=O)NCC2CCCO2)cc1 (configuration not stated)
[2]
  EC50: > 195 µM (not active)

## COc1ccc2nc(N3C(=O)CC(Cc4ccc(Cl)cc4)C3=O)sc2c1 (configuration not stated)
Cytochrome P450 1A2
  AC50: 2.24 µM (inconclusive)

## Cc1ccc(-n2c(C)cc(C(=O)CN3C(=O)C(=O)N(C4CCCC4)C3=O)c2C)cc1
[3]
  EC50: > 53 µM (inactive)

## CC1CCC(C(C)C)C(OCC(O)CN2CCN(Cc3ccccc3)CC2)C1 (configuration not stated)
Cytochrome P450 1A2
  AC50: 12.6 µM (inconclusive)
Cytochrome P450 2C9
  AC50: 1.41 µM (inconclusive)

## CCOC(=O)C(O)(c1ccc(NC(=S)NC(=O)c2ccc(Cl)cc2Cl)cc1)C(F)(F)F (configuration not stated)
[3]
  EC50: 15.9 µM (active)

## Cc1cc(NC(=O)CN2C(=O)NC(C)(c3ccc(OC(F)F)cc3)C2=O)no1 (configuration not stated)
[3]
  EC50: 14.4 µM (active)

## Cc1noc(C)c1C(=O)Nc1nccs1
Streptokinase A
  EC50: > 150 µM (not active)
[1]
  EC50: > 150 µM (not active)
Streptococcus
  EC50: > 150 µM (not active)

## O=C(O)C1CCC(=O)N(C2CCCCC2)C1c1ccccc1Cl (configuration not stated)
[2]
  EC50: > 195 µM (not active)

## CCOC(=O)c1cc2occc2n1CC(=O)N1CCCc2ccccc21
[2]
  EC50: > 195 µM (not active)

## Cc1cccc(N2CCN(Cc3nc(-c4ccccc4Cl)oc3C)CC2)n1
[2]
  EC50: > 195 µM (not active)

## Cc1cc2c3c(ccc(C)c3n1)N=CN2c1ccccc1
[4]
  EC50: 12.3 µM (active)
[5]
  EC50: 119 µM (active)
[6]
  EC50: 23.3 µM (active)

## CCc1cccc(CC)c1N1C(=O)C2=C(SCCCS2)C1=O
[3]
  EC50: 6.9 µM (active)

## Cc1ccc(S(=O)(=O)Nc2ccc3c(c2)C(=O)N([C@@H](C)CO)C[C@@H](C)[C@@H](CN(C)Cc2ccc(Cl)c(Cl)c2)OCCCC[C@@H](C)O3)cc1
Paired box protein Pax-8
  AC50: 9.18 µM (active)

## C[C@@H]1CCCCO[C@H](CN(C)C(=O)Nc2ccc(C(F)(F)F)cc2)[C@@H](C)CN([C@@H](C)CO)C(=O)c2cc(NC(=O)Nc3ccccc3)ccc2O1
Paired box protein Pax-8
  AC50: 1.89 µM (active)

## C[C@@H]1CN([C@@H](C)CO)C(=O)Cc2cc(NC(=O)C3CC3)ccc2O[C@H]1CN(C)Cc1ccc(-c2ccccc2)cc1
Paired box protein Pax-8
  AC50: 18.9 µM (active)

## Sc1nnc(C2CCCCC2)n1/N=C/c1c(Cl)cccc1Cl
Streptokinase A
  EC50: > 150 µM (not active)
[1]
  EC50: 10.1 µM (active)
Streptococcus
  EC50: 71.9 µM (active)

## COc1ccc(/C(C)=N/NC(=O)c2ccc(N(C)C)cc2)cc1
Cytochrome P450 1A2
  AC50: 10 µM (inconclusive)

## Cc1ccc(/C=N/n2cnnc2)s1
Cytochrome P450 2C19
  AC50: 11.2 µM (inconclusive)
Cytochrome P450 3A4
  AC50: 15.8 µM (inconclusive)
Cytochrome P450 1A2
  AC50: 22.4 µM (inconclusive)
Cytochrome P450 2C9
  AC50: 14.1 µM (inconclusive)
